Where a name gives a salt, the structure may show the parent alone.
How the values were obtained:
[1] = biological target: T1, human 5-hydroxytryptamine-2C (h5-HT2C) receptor (Homo sapiens, UniProt P28335); assay: [125I]DOI binding affinity at h5-HT2C receptor, CHO cell membranes; settings: [125I]DOI displacement, CHO membranes expressing h5-HT2C; read-out: 5-HT2C Affinity Ki
T1 construct: expressed in transfected cells; host or cells: CHO (Chinese Hamster Ovary) cells; membranes
T1 sequence (P28335 33-458): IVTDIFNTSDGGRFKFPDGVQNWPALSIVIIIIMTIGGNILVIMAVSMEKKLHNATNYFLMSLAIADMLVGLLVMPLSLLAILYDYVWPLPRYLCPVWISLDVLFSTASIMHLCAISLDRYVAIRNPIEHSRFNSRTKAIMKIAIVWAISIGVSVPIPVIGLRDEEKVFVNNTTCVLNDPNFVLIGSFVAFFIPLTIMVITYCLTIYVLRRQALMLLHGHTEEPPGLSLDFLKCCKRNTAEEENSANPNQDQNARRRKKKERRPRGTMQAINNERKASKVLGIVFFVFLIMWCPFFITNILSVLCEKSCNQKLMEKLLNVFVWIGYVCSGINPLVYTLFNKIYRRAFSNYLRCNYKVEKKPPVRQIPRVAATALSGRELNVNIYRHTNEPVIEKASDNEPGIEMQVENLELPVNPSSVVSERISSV

[2] = biological target: T2, human 5-HT2C receptor (Homo sapiens, UniProt P28335); assay: 5-HT2C receptor-stimulated calcium mobilization (FLIPR) in CHO cells; format: cell-based; settings: for EC50: calcium mobilization, CHO cells expressing human 5-HT2C, read-out: 5-HT2C Function EC50; for 5-HT2C Function Emax (%) / Emax: percentage of the response to a maximally effective concentration of 5-HT; for Emax: CHO, read-out: 5-HT2C Function Emax (%)
T2 sequence (P28335 33-458): T1 sequence (P28335 33-458)

Structure (SMILES) | melting point | also measured
NCC1Cc2ccc3c(c2O1)CCC3 (racemic) (as salt: hydrochloride) [Example 1, (±)-1-(3,6,7,8-tetrahydro-2H-indeno[4,5-b]furan-2-yl)methanamine] | > 230 °C (dec.) | 
NCC1Cc2ccc3c(c2O1)CCCC3 (racemic) (as salt: hydrochloride) [Example 4, (±)-1-(2,3,6,7,8,9-hexahydronaphtho[1,2-b]furan-2-yl)methanamine] | > 220 °C (dec.) | 
Cc1cc2c(c3c1CCC3)OC(CN)C2 (racemic) (as salt: hydrochloride) [Example 7, (±)-1-(5-methyl-3,6,7,8-tetrahydro-2H-indeno[4,5-b]furan-2-yl)methanamine] | > 200 °C (dec.) | 
NCC1Cc2ccc3ccccc3c2O1 (racemic) (as salt: hydrochloride) [Example 10, (±)-1-(2,3-dihydronaphtho[1,2-b]furan-2-yl)methanamine] | > 250 °C (dec.) | 
NCC1Cc2cc3c(cc2O1)CCCC3 (racemic) (as salt: hydrochloride) [Example 13, (±)-1-(2,3,5,6,7,8-hexahydronaphtho[2,3-b]furan-2-yl)methanamine] | > 225 °C | 
NCC1Cc2c(ccc3c2CCCC3)O1 (racemic) (as salt: hydrochloride) [Example 14, (±)-1-(1,2,6,7,8,9-hexahydronaphtho[2,1-b]furan-2-yl)methanamine] | > 225 °C | 
COc1cc2c(c3c1C1CCC3CC1)OC(CN)C2 (racemic) (as salt: hydrochloride) [Example 19, (±)-1-(5-methoxy-2,3,6,7,8,9-hexahydro-6,9-ethanonaphtho[1,2-b]furan-2-yl)methanamine] | > 210 °C | 
NCC1Cc2cc(Cl)c3ccccc3c2O1 (racemic) (as salt: hydrochloride) [Example 23, (±)-1-(5-chloro-2,3-dihydronaphtho[1,2-b]furan-2-yl)methanamine] | 269 to 271 °C | 
CNCC1Cc2cc(Cl)c3ccccc3c2O1 (racemic) (as salt: hydrochloride) [Example 24, (±)-1-(5-chloro-2,3-dihydronaphtho[1,2-b]furan-2-yl)-N-methylmethanamine] | 224 to 226 °C | 
NCC1Cc2c(Cl)cc3c(c2O1)CCC3 (racemic) (as salt: hydrochloride) [Example 25, (±)-1-(4-chloro-3,6,7,8-tetrahydro-2H-indeno[4,5-b]furan-2-yl)methanamine] | 251 to 254 °C | 
NCC1Cc2cc(Cl)c3c(c2O1)CCC3 (racemic) (as salt: hydrochloride) [Example 29, (±)-1-(5-chloro-3,6,7,8-tetrahydro-2H-indeno[4,5-b]furan-2-yl)methanamine] | 270 °C (dec.) | 
CNCC1Cc2c(Cl)cc3c(c2O1)CCC3 (racemic) [Example 28, (±)-1-(4-chloro-3,6,7,8-tetrahydro-2H-indeno[4,5-b]furan-2-yl)-N-methylmethanamine] | 58 to 60 °C | Ki [1]: 11 nM
C[C@@H](N)[C@H]1Cc2ccc3c(c2O1)CCC3 (relative stereo) (as salt: hydrochloride) [Example 22, (2R*)-1-[(2R*)-3,6,7,8-tetrahydro-2H-indeno[4,5-b]furan-2-yl]ethylamine] | > 250 °C | 
COc1cc2c(c3c1C1CCC3C1)OC(CN)C2 (single isomer, unassigned) (as salt: hydrochloride) [Example 16, (9-methoxy-4-oxatetracyclo[9.2.1.0^2,10.0^3,7]tetradeca-2,7,9-trien-5-yl)methylamine] | > 180 °C (dec.) | 
COc1cc2c(c3c1C1CCC3C1)OC(CN)C2 (single isomer, unassigned) (as salt: hydrochloride) [Example 17, (9-methoxy-4-oxatetracyclo[9.2.1.0^2,10.0^3,7]tetradeca-2,7,9-trien-5-yl)methylamine] | > 150 °C (dec.) | 
Cc1cc2c(c3c1CCC3)OC(CN)C2 (single isomer, unassigned; (+)) (as salt: hydrochloride) [Example 8, (+)-1-(5-methyl-3,6,7,8-tetrahydro-2H-indeno[4,5-b]furan-2-yl)methanamine] | > 220 °C | 
COc1cc2c(c3c1C1CCC3CC1)OC(CN)C2 (single isomer, unassigned; (+)) (as salt: hydrochloride) [Example 20, (+)-1-(5-methoxy-2,3,6,7,8,9-hexahydro-6,9-ethanonaphtho[1,2-b]furan-2-yl)methanamine] | > 220 °C | 
NCC1Cc2cc(Cl)c3c(c2O1)CCC3 (single isomer, unassigned; (-)) (as salt: hydrobromid) [Example 30, (−)-1-(5-chloro-3,6,7,8-tetrahydro-2H-indeno[4,5-b]furan-2-yl)methanamine] | > 330 °C | 
NCC1Cc2c(Cl)cc3c(c2O1)CCC3 (single isomer, unassigned; (-)) (as salt: hydrochloride) [Example 26, (−)-1-(4-chloro-3,6,7,8-tetrahydro-2H-indeno[4,5-b]furan-2-yl)methanamine] | 265 to 268 °C | 
COc1cc2c(c3c1C1CCC3CC1)OC(CN)C2 (single isomer, unassigned; (-)) [Example 21, (−)-1-(5-methoxy-2,3,6,7,8,9-hexahydro-6,9-ethanonaphtho[1,2-b]furan-2-yl)methanamine] |  | EC50 [2]: 0.8 nM; 5-HT2C Function Emax (%) [2]: 90%; Ki [1]: 4 nM
NCC1Cc2c(Cl)cc3c(c2O1)CCC3 (single isomer, unassigned; (-)) [Example 26, (−)-1-(4-chloro-3,6,7,8-tetrahydro-2H-indeno[4,5-b]furan-2-yl)methanamine] |  | Emax [2]: 80%; EC50 [2]: 88 nM; Ki [1]: 16 nM
NCC1Cc2cc(Cl)c3c(c2O1)CCC3 (single isomer, unassigned; (-)) [Example 30, (−)-1-(5-chloro-3,6,7,8-tetrahydro-2H-indeno[4,5-b]furan-2-yl)methanamine] |  | EC50 [2]: 234 nM; 5-HT2C Function Emax (%) [2]: 80%; Ki [1]: 6 nM
COc1cc2c(c3c1C1CCC3C1)OC(CN)C2 (centres unmarked) [Example 15, (9-methoxy-4-oxatetracyclo[9.2.1.0^2,10.0^3,7]tetradeca-2,7,9-trien-5-yl)methylamine] |  | Emax [2]: 100%; EC50 [2]: 17 nM; Ki [1]: 9 nM

Source: patent US7728155B2, “Dihydrobenzofuranyl alkanamines and methods for using same as cns agents” (Wyeth LLC, priority 2003, dated 2010)
